Experimental data as given in PubChem BioAssay (NCI).
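96-well plates; 48 h exposure; 5 concentrations. Endpoints by linear interpolation between flanking doses. Not reached: highest tested concentration assigned. TGI denotes the concentration required for complete inhibition of growth.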

Experiments:
Test in all cases: NCI anticancer screen, dose series, 48 h
[1] = tested on: 786-0 renal
[2] = tested on: ACHN renal
[3] = tested on: HOP-92 NSCLC
[4] = tested on: IGROV1 ovarian
[5] = tested on: SK-MEL-2 melanoma
[6] = tested on: SW-620 colon
[7] = tested on: HL-60(TB) leukemia
[8] = tested on: SNB-75 CNS
[9] = tested on: SR leukemia
[10] = tested on: MCF7 breast

SMILES	TGI [1] [µM]	TGI [2] [µM]	TGI [3] [µM]	TGI [4] [µM]	TGI [5] [µM]	TGI [6] [µM]	TGI [7] [µM]	TGI [8] [µM]	TGI [9] [µM]	TGI [10] [µM]
CC1=NN(C(=O)Cc2ccccc2)C(=O)/C1=C\c1ccc([N+](=O)[O-])cc1	> 100	> 100	9.82	> 100	> 100	> 100				
CC(C)(C)N/N=C(\C(=O)Nc1cccc(Cl)c1)C1C(=O)Nc2ccccc2S1=O (stereo not given)	> 100	> 100	> 100	> 100	> 100	> 100	> 100	> 100	> 100	
CN(C)CN1CSC(=S)N(CN(C)C)C1	> 100	> 100	> 100	> 100	96.3	> 100		> 100	55.2	
COc1cccc2c1C(=O)c1c(O)c3c(c(O)c1C2=O)C[C@@](O)(C(C)=O)CC3S(=O)(=O)O (stereo not given in full)	> 100	> 100	> 100	> 100	> 100	> 100	> 100	> 93	> 100	
Clc1cc(-c2ccccc2)nc(Nc2nc3ccccc3[nH]2)n1	34.2	33.3	5.25	33.2		22.2	> 100	> 100	10.5	
CN(c1ccccc1)S(=O)(=O)c1ccc([N+](=O)[O-])cc1	> 100	> 100			> 100	> 100	> 100		> 100	> 100
COc1ccc2c(c1)Oc1cc(O)ccc1[C@H]2c1ccccc1C(=O)NC(C)c1ccccc1 (stereo not given in full)	34.9	29.8		31.5	82.2	35.6	44.1	35		
Cc1c(C(=O)O)n2c(=S)[nH]nc2c2ccccc12	> 100	> 100	> 100	> 100	> 100	> 100	> 100		> 100	> 100
O=C(Cc1nc2ccc(C(=O)c3ccccc3)cc2[nH]c1=O)C(=O)Nc1nc2ccccc2[nH]1	> 100	> 100	91.8	> 100		> 100	> 100	> 100	> 100	
Cc1ncc([N+](=O)[O-])n1CC[N+](C)([O-])CCCCn1ccnc1[N+](=O)[O-] (stereo not given)	> 100	> 100		> 100	> 100	> 100	> 100	> 100	> 100	> 100
Fc1ccc(-c2sc(-c3ccsc3)cc2Cc2ccsc2)cc1	> 10		> 10	> 10		> 10	> 10	> 10	> 10	> 10
COc1cc(C2c3cc4c(cc3OC(NNC(N)=O)C2C)OCO4)cc(OC)c1OC (stereo not given)	> 100	> 62.2	8.18	> 100	> 100	> 100		> 87.9		> 53.8
Cn1cnc(N2CCCC2)c(C#N)c1=S	> 100	> 100	> 100	> 100	> 100	> 100	> 100		> 100	> 100
CCn1c2nc(=O)n(CCCCCCCCSC(c3ccccc3)(c3ccccc3)c3ccccc3)c(=O)c-2nc2ccccc21	> 100	60.8	53.1	> 100	> 100	> 100	6.51		> 100	> 100
CCC12CCCN(Cc3ccccc3)C1c1c(n(C)c3ccccc13)C(CO)C2 (stereo not given)	79.5		110	218	107	89.2	169		105	
COC(C/C(=C/CO[Si](C(C)C)(C(C)C)C(C)C)C(=O)N(C(=O)OC(C)(C)C)c1ccccc1I)OC	> 100	> 100	> 100	29.6	37.5	> 100		> 100	> 100	41.2
O=c1[nH]c(=O)c2ncn(-c3ccc([N+](=O)[O-])cn3)c2[nH]1	> 100	> 100	> 100		> 100	> 100	> 100	> 100		> 100
CNC(=O)N(CCC#N)CCN(C(=O)NC)c1ccccc1	> 100	> 100	> 100	> 100	> 100	> 100		> 100	> 100	> 100
CCc1cc(C)cc2[n+]1CC=C2	> 100	35.4	45		40.2	> 100	12.8	70.6		
Cn1c(-c2ccc[se]2)ccc1-c1ccc(C=O)[se]1	> 100	> 100	> 82.1	0.487	> 100	> 51.6	> 100	> 65.1	> 100	
CCOC(=O)c1[nH]cc(C)c1-c1cccn1-c1ccc(Cl)cc1[N+](=O)[O-]	36.1	> 100	51.9	49.9	39.2	> 100		56.1		> 100
Nc1nc(NCCOCP(=O)(O)O)c([N+](=O)[O-])c(=O)[nH]1	> 100	> 100	> 100	> 100	> 100	> 100	> 100	> 100	> 100	
